From ChEMBL document CHEMBL1201862, “PubChem BioAssay data set” (2004)
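In this assay, cells in 96-well plates receive the compound at five concentrations for 48 hours. Endpoints are linearly interpolated between the surrounding concentrations. GI50 = concentration required for 50% inhibition of growth.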 Activity calls are given as the source filed them. Cut-off read from the data, not from the text of the source: active = GI50 up to about 1.1 µM and inactive = higher.

Key:
Assay in all cases: DTP human tumour cell line panel, 48 h
[1] = system: A498
[2] = system: CAKI-1
[3] = system: HOP-62
[4] = system: MCF7
[5] = system: MDA-MB-231
[6] = system: MDA-MB-435
[7] = system: MOLT-4
[8] = system: NCI-H226
[9] = system: OVCAR-8
[10] = system: SF-268
[11] = system: SF-539
[12] = system: SK-MEL-2
[13] = system: SK-OV-3
[14] = system: SNB-75
[15] = system: U-251
[16] = system: UACC-257
[17] = system: MDA-N
[18] = system: NCI-H522
[19] = system: SR

Measured: GI50

O=c1[nH]c(=O)c2ncn(-c3ccc([N+](=O)[O-])cn3)c2[nH]1
inactive: [1] > 100 µM | [2] > 100 µM | [3] > 100 µM | [4] > 100 µM | [5] > 100 µM | [6] > 100 µM | [7] > 100 µM | [8] > 100 µM | [9] > 100 µM | [10] > 100 µM | [11] > 100 µM | [12] > 100 µM | [13] > 100 µM | [14] > 100 µM | [15] > 100 µM | [16] > 100 µM

CC(=O)Nc1ccc2c(c1)/C(=N/c1ccc(C(=O)O)cc1)c1ccccc1-2
inactive: [1] > 100 µM | [2] > 100 µM | [3] 86.1 µM | [4] 2.42 µM | [6] > 100 µM | [17] > 100 µM | [7] 32.1 µM | [8] 39.5 µM | [18] 70 µM | [9] 76.7 µM | [10] > 100 µM | [13] > 100 µM | [15] > 100 µM | [16] > 100 µM

COC(=O)C1=C(N)C2=C(N)Oc3ccccc3C2CC1=C(C#N)C#N (stereo unspecified)
inactive: [1] 25.8 µM | [2] 23.2 µM | [3] 33.5 µM | [4] 12.7 µM | [5] 17.5 µM | [6] 34.8 µM | [7] 33.4 µM | [8] 44.3 µM | [18] 15.8 µM | [9] 23.9 µM | [10] 29.7 µM | [11] 43.6 µM | [12] 25.9 µM | [13] 31.4 µM | [14] 18 µM | [19] 12.6 µM | [15] 35.5 µM | [16] 34.7 µM

O=C(O)C(F)(OC(F)(F)C(F)(F)C(F)(F)F)C(F)(F)F (stereo unspecified)
inactive: [1] > 100 µM | [2] > 100 µM | [3] > 100 µM | [4] > 100 µM | [5] > 100 µM | [6] > 100 µM | [7] > 100 µM | [8] > 100 µM | [18] > 100 µM | [9] > 100 µM | [10] > 100 µM | [11] > 100 µM | [12] > 100 µM | [13] > 100 µM | [14] > 100 µM | [15] > 100 µM | [16] > 100 µM

Cc1ccc(-n2c(Cn3nnc(-c4cccnc4)n3)nn(C3OC(COC(=O)c4ccccc4)C(OC(=O)c4ccccc4)C3OC(=O)c3ccccc3)c2=S)cc1 (stereo unspecified)
inactive: [2] > 100 µM | [3] > 100 µM | [4] > 100 µM | [5] > 100 µM | [6] > 100 µM | [17] > 100 µM | [7] > 100 µM | [8] > 100 µM | [18] > 100 µM | [9] > 100 µM | [10] > 100 µM | [11] > 100 µM | [12] > 100 µM | [13] > 100 µM | [14] 52.6 µM | [15] > 100 µM | [16] > 100 µM

Cn1/c(=N\c2ccccc2[N+](=O)[O-])sc2ccccc21
inactive: [1] 54.8 µM | [2] 43.9 µM | [3] 20.6 µM | [5] 6.1 µM | [6] > 100 µM | [17] > 100 µM | [7] > 100 µM | [8] 34.9 µM | [18] 9.29 µM | [9] 49.9 µM | [10] 70.5 µM | [11] 28.2 µM | [12] 33.7 µM | [13] 23 µM | [14] 18.4 µM | [19] > 100 µM | [15] 36.6 µM | [16] 29.9 µM

COC1OC(Cc2nnc(C)o2)C(OCc2ccccc2)C(OCc2ccccc2)C1OCc1ccccc1 (stereo unspecified)
inactive: [1] 50.9 µM | [2] 35.6 µM | [3] 52.1 µM | [4] 20.3 µM | [5] 36.1 µM | [6] 19.7 µM | [7] 16 µM | [8] 29.5 µM | [18] 19.4 µM | [10] 21.5 µM | [11] 38.3 µM | [12] 14.5 µM | [13] 77.4 µM | [14] 74.3 µM | [19] 13.2 µM | [15] 38.4 µM | [16] 17.2 µM

ClC1=C(Cl)C(Cl)(Cl)c2c3c(c4c(c21)C(Cl)(Cl)C(Cl)=C4Cl)C(Cl)(Cl)C(Cl)=C3Cl
inactive: [3] > 100 µM | [7] > 100 µM | [8] > 100 µM | [18] 33.1 µM | [9] > 100 µM | [10] > 100 µM | [11] > 100 µM | [13] > 100 µM | [19] > 100 µM | [15] > 100 µM | [16] > 100 µM

CC(C)(C)c1cc2c(O)c(c1)COCc1cc(C(C)(C)C)cc(c1O)COCc1cc(C(C)(C)C)cc(c1O)COC2
inactive: [1] 46.6 µM | [3] > 100 µM | [4] > 100 µM | [6] > 100 µM | [7] 48 µM | [8] > 100 µM | [9] > 100 µM | [12] > 100 µM | [13] > 100 µM | [14] 9.35 µM | [19] > 100 µM | [15] > 100 µM | [16] > 100 µM

N#C/C(=C\c1ccccc1F)C(=O)c1ccccc1
inactive: [1] > 100 µM | [2] > 100 µM | [3] > 100 µM | [7] > 100 µM | [18] > 100 µM | [9] > 100 µM | [10] > 100 µM | [11] > 100 µM | [12] > 100 µM | [13] > 100 µM | [19] > 100 µM | [15] > 100 µM | [16] > 100 µM

CCOC(=O)c1cn2c(n1)sc1cccc(C)c12
inactive: [2] > 100 µM | [3] > 100 µM | [4] > 100 µM | [5] > 100 µM | [17] > 100 µM | [8] > 100 µM | [18] > 100 µM | [9] > 100 µM | [10] > 100 µM | [11] > 100 µM | [13] > 100 µM | [14] > 100 µM | [16] > 100 µM

COc1cc(O)c2c(c1)C(=O)c1cc3c(c(O)c1C2=O)C(OC1OC(C)C(OC)C(O)C1OC)C(OC)C(C)(O)C3=O (stereo unspecified)
inactive: [1] 5.53 µM | [2] 3.04 µM | [3] 5.46 µM | [4] 5.58 µM | [5] 4.44 µM | [6] 3.8 µM | [7] 3.14 µM | [8] 2.59 µM | [18] 1.68 µM | [9] 2.36 µM | [10] 5.55 µM | [11] 3.92 µM | [12] 8.11 µM | [13] 13.3 µM | [14] 4.15 µM | [19] 1.64 µM | [15] 5.33 µM | [16] 4.28 µM

O=C(Cn1c2ccc(Br)cc2c2nc3ccccc3nc21)NNC(=S)NC1CCCCC1
inactive: [1] 16.7 µM | [2] 18 µM | [3] 13.6 µM | [5] 15.8 µM | [6] 13.8 µM | [17] 16.8 µM | [7] 10.7 µM | [8] 15.4 µM | [18] 14.5 µM | [9] 14.7 µM | [10] 16.7 µM | [12] 17.2 µM | [13] 21.7 µM | [14] 13.8 µM | [15] 15 µM | [16] 16.4 µM

O=C1CSC(c2c[nH]c3ccccc23)N1c1cccc(Cl)c1 (stereo unspecified)
inactive: [1] 60.1 µM | [3] 54.7 µM | [4] 39.6 µM | [5] 24 µM | [6] 33.6 µM | [17] 36.9 µM | [7] 38.5 µM | [8] 66.5 µM | [9] > 100 µM | [10] 89.5 µM | [11] 61.1 µM | [12] 30.1 µM | [13] > 100 µM | [14] 46.7 µM | [15] 37.2 µM | [16] > 100 µM

CC(=O)C1C(=O)C(=O)N(c2ccc(Br)cc2)C1=O (stereo unspecified)
inactive: [2] > 100 µM | [3] > 100 µM | [4] > 100 µM | [5] > 100 µM | [6] > 100 µM | [17] > 100 µM | [7] > 100 µM | [8] > 100 µM | [18] > 100 µM | [9] > 100 µM | [10] > 100 µM | [11] > 100 µM | [12] > 100 µM | [13] > 100 µM | [14] > 100 µM | [15] > 100 µM | [16] > 100 µM

O=C(O)c1ccccc1/C=C1/Cc2ccc3c(c2C1=O)CCC3
inactive: [1] 38.3 µM | [2] > 100 µM | [3] 68.9 µM | [4] 49.5 µM | [6] 26.3 µM | [17] 29.6 µM | [7] 33.8 µM | [8] 36.2 µM | [18] 42.4 µM | [9] 48.1 µM | [10] 36.1 µM | [11] 23.9 µM | [12] 12.7 µM | [14] 39.4 µM | [19] 39.1 µM | [15] 27.6 µM | [16] 41.8 µM

CCCCCCC(=O)C/C(CCC(=O)N(Cc1ccccc1)Cc1ccccc1)=N\NC(N)=O
inactive: [1] > 100 µM | [2] > 100 µM | [3] > 100 µM | [7] > 100 µM | [8] > 100 µM | [18] > 100 µM | [9] > 100 µM | [10] > 100 µM | [11] > 100 µM | [12] > 100 µM | [13] > 100 µM | [14] > 100 µM | [19] > 100 µM | [15] > 100 µM | [16] > 100 µM
